28 compounds from patent publication US20260297042A1, “BIARYLAMIDE DERIVATIVES AND THEIR USE AS PKMYT1 INHIBITORS” (CANCER RESEARCH TECHNOLOGY LIMITED, priority 2023, published 2026) can be followed below.

In the assay the target is T1, Human PKMYT1 (Homo sapiens, UniProt Q99640).
T1 construct: Human PKMYT1 75-362 was cloned as a TEV cleavable 6xHis fusion; 6xHis (TEV cleavable) (cleaved yes); made in house; host or cells: bacterial cells
T1 sequence (Q99640 75-362): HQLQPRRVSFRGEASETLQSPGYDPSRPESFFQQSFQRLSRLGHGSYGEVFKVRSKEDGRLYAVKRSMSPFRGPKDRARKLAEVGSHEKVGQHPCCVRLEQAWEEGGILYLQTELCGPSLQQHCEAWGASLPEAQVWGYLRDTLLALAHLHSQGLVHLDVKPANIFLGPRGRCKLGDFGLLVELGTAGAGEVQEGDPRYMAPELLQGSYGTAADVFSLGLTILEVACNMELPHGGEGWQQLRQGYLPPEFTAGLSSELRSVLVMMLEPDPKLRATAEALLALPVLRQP
As to the kind of experiment: PKMYT1 biochemical ADP-Glo enzymatic assay. The procedure:
Human PKMYT1 75-362 was cloned as a TEV cleavable 6xHis fusion in bacterial cells. After purification on a Ni++HiTrap Chelating HP column, the His-tag was cleaved using TEV protease. Cleaved PKMYT1 was further purified on a Superdex 200 16/600 sizing column. The fractions containing PKMYT1 were pooled and concentrated using an ultrafiltration centrifugal protein concentrator. The purified protein was aliquoted, flash frozen in liquid nitrogen, and stored at −80° C.
PKMYT1 biochemical assay: Inhibition of PKMYT1 was assessed using the ADP-Glo™ Max Detection System from Promega. This assay detects the production of ADP from ATP by PKMYT1 via a two-step process ultimately involving the conversion of ADP to ATP with the latter converted to light in a coupled reaction with luciferase/luciferin. Inhibition of PKMYT1 by small molecule inhibitors results in a retardation of luminescence above background. The intrinsic ATPase activity of PKMYT1 was assessed according to the following protocol. Compounds were dosed into Corning white low volume 384 well assay plates using an Echo acoustic dispenser to generate 10-point curves spanning a 3-fold dilution series. DMSO (no inhibitor) control wells were prepared to benchmark the maximum and minimum signals in the presence and absence of PKMYT1, respectively. The PKMYT1 kinase domain was purified in-house, as described above, and added to the wells at a final concentration of 15 nM in a buffer of 50 mM HEPES (pH 7.5), 10 mM MgCl2, 1 mM EGTA, 0.01% Brij-35, 1% DMSO. 500 µM ATP was added to start the reaction with the final assay volume being 4 μl. The plate was then incubated for 60 minutes at 26° C. before the addition of 4 μl of ADP-Glo Reagent to stop the reaction and deplete the unconsumed ATP. Following a further 60 minute incubation the assay signal was developed by the addition of 8 μl ADP-Glo Max Detection Reagent. After 60 minutes the luminescence signal was read on a PHERAStar FS microplate reader (BMG Labtech).
Data analysis: Data was captured and analysed within the Dotmatics Studies software module where dose response curves were generated and IC50 values determined. Acceptance and verification of data followed strict in-house business rules which are summarised as follows. […] Technical and biological replicates of each compound are routinely tested and replicate IC50 values must fall within 3-fold of each other with dose response curves showing ‘goodness of fit’ r2 values >0.9. Failure to meet any of these defined criteria result in rejection of data.
(ADP-Glo turns the ADP formed in a reaction into a luminescent signal.)

[1] abbreviates: PKMYT1 kinase domain 15 nM, ADP-Glo, banded values.
The mark [2] stands for this setting: ADP-Glo, 15 nM PKMYT1 kinase domain, 500 µM ATP, 60 minutes at 26° C., banded.
Where [3] appears, read: PKMYT1 biochemical ADP-Glo enzymatic assay, Comparison Data 1.
Setting [4] is: PKMYT1 biochemical ADP-Glo enzymatic assay, Comparison Data 2.

pIC50: −log10 of the molar value.

By pIC50 is commonly meant the IC50 on a negative log10 scale, so that one unit is a factor of ten. Lower therefore signals a large IC50. `Cc1ccc(N2CCN(C3CC3)CC2)nc1Nc1ncc(C(=O)Nc2c(C)ccc(O)c2C)s1` [BAA-433, 2-((6-(4-cyclopropylpiperazin-1-yl)-3-methylpyridin-2-yl)amino)-N-(3-hydroxy-2,6-dimethylphenyl)thiazole-5-carboxamide]: under setting [1], the pIC50 was greater than 7.30. In the case of `Cc1ccc(O)c(C)c1NC(=O)c1cnc(NCC2CCN(CC(=O)N(C)C)CC2)s1` [BAA-216, 2-[[1-[2-(dimethylamino)-2-oxo-ethyl]-4-piperidyl]methylamino]-N-(3-hydroxy-2,6-dimethyl-phenyl)thiazole-5-carboxamide], the negative logarithm of the IC50 (pIC50) under setting [2] is 4.96 to 6.00. Still for that read-out and setting: in the case of `Cc1ccc(O)c(C)c1NC(=O)c1cnc(NCC2CCN(C(=O)CN3CCCC3)CC2)s1` [BAA-211, N-(3-Hydroxy-2.6-dimethyl-phenyl)-2-[[1-(2-pyrrolidin-1-ylacetyl)-4-piperidyl]methylamino]thiazole-5-carboxamide] it was 4.96 to 6.00. On to `Cc1cc(C)c(NC(=O)c2cnc(Nc3ccn(C)n3)s2)c(C)c1O` [BAA-517, N-(3-Hydroxy-2,4,6-trimethylphenyl)-2-((1-methyl-1H-pyrazol-3-yl)amino)thiazole-5-carboxamide], for which, under setting [1], the pIC50 was 4.96 to 6.00. Under setting [2], `Cc1ccc(O)c(C)c1NC(=O)c1cnc(N[C@@H]2CCN(C(=O)OC(C)(C)C)C2)s1` [BAA-050] gave a pIC50 of 4.96 to 6.00. With `CCN(c1ccc(F)cc1)c1ccc(Nc2ncc(C(=O)Nc3c(C)ccc(O)c3C)s2)nc1` [BAA-311, 2-((5-(ethyl(4-fluorophenyl)amino)pyridin-2-yl)amino)-N-(3-hydroxy-2,6-dimethylphenyl)thiazole-5-carboxamide], under setting [2], the pIC50 was 4.96 to 6.00. Compound `Cc1cc(-c2ccc(F)cc2)cnc1Nc1ncc(C(=O)Nc2c(C)ccc(O)c2C)s1` [BAA-292, 2-((5-(4-fluorophenyl)-3-methylpyridin-2-yl)amino)-N-(3-hydroxy-2,6-dimethylphenyl)thiazole-5-carboxamide] showed a pIC50 under setting [2] of 4.96 to 6.00. With `Cc1c(O)cccc1NC(=O)c1cnc(N)s1` [REF-002, 2-Amino-N-(3-hydroxy-2-methyl-phenyl)thiazole-5-carboxamide, reference compound], under setting [3], the pIC50 was 4.57. Consider `COc1ccc(C)c(NC(=O)c2cnc(Nc3ccn(C)n3)s2)c1C` [REF-004, N-(3-Methoxy-2,6-dimethyl-phenyl)-2-[(1-methylpyrazol-3-yl)amino]thiazole-5-carboxamide, reference compound], for which the negative-log IC50 (pIC50) under setting [4] is less than 4.00.

`Cc1ccc(O)c(C)c1NC(=O)c1cnc(Nc2ccccc2C(C)C)s1` [BAA-525, N-(3-hydroxy-2,6-dimethylphenyl)-2-((2-isopropylphenyl)amino)thiazole-5-carboxamide]: the pIC50 under setting [1] is 4.96 to 6.00.

As to `Cc1ccc(O)c(C)c1NC(=O)c1cnc(NC2CCCCC2)s1` [BAA-064, 2-(cyclohexylamino)-N-(3-hydroxy-2,6-dimethyl-phenyl)thiazole-5-carboxamide], the negative logarithm of the IC50 (pIC50) under setting [2] was 4.96 to 6.00. As for `Cc1cccc(C)c1NC(=O)c1cnc(Nc2ccn(C)n2)s1` [REF-003, N-(2,6-Dimethylphenyl)-2-[(1-methylpyrazol-3-yl)amino]thiazole-5-carboxamide, reference compound], the negative logarithm of the IC50 (pIC50) under setting [4] was 4.27. As for `Cc1ccc(O)c(C)c1NC(=O)c1cnc(NCC2CCN(C(=O)CN3CCOCC3)CC2)s1` [BAA-217, N-(3-hydroxy-2,6-dimethyl-phenyl)-2-[[1-(2-morpholinoacetyl)-4-piperidyl]methylamino]thiazole-5-carboxamide], under setting [2], the pIC50 was 6.00 to 7.30. As for `Cc1ccc(O)cc1NC(=O)c1cnc(N)s1` [REF-001, 2-Amino-N-(5-hydroxy-2-methyl-phenyl)thiazole-5-carboxamide, reference compound], the pIC50 under setting [3] is 4.27. As to `Cc1ccc(O)c(C)c1NC(=O)c1cnc(Nc2ccc(-c3ccc(F)cc3)cn2)s1` [BAA-291, 2-((5-(4-fluorophenyl)pyridin-2-yl)amino)-N-(3-hydroxy-2,6-dimethylphenyl)thiazole-5-carboxamide], the pIC50 under setting [2] is 4.96 to 6.00. Compound `Cc1ccc(O)c(C)c1NC(=O)c1cnc(Nc2ccn([C@H]3CCCN(C(=O)OC(C)(C)C)C3)n2)s1` [BAA-039] showed a negative-log IC50 (pIC50) under setting [2] of 4.96 to 6.00. Consider `Cc1ccc(O)c(C)c1NC(=O)c1cnc(NCC(N)=O)s1` [BAA-070, 2-[(2-amino-2-oxo-ethyl)amino]-N-(3-hydroxy-2,6-dimethyl-phenyl)thiazole-5-carboxamide], for which the negative logarithm of the IC50 (pIC50) under setting [2] was 4.96 to 6.00. In the case of `Cc1ccc(O)c(C)c1NC(=O)c1cnc(Nc2ccn(CCNC(=O)OC(C)(C)C)n2)s1` [BAA-020, tert-butyl N-[2-[3-[5-[(3-hydroxy-2,6-dimethyl-phenyl)carbamoyl]thiazol-2-yl]amino]pyrazol-1-ylethyl]carbamate], the negative logarithm of the IC50 (pIC50) under setting [2] is 4.96 to 6.00.

For the compound `CCN(c1ccc(F)cc1)c1cccc(Nc2ncc(C(=O)Nc3c(C)ccc(O)c3C)s2)n1` [BAA-312, 2-((6-(ethyl(4-fluorophenyl)amino)pyridin-2-yl)amino)-N-(3-hydroxy-2,6-dimethylphenyl)thiazole-5-carboxamide], under setting [2], the pIC50 is 4.96 to 6.00. Regarding `Cc1ccc(O)c(C)c1NC(=O)c1cnc(N[C@H]2CCN(C(=O)OC(C)(C)C)C2)s1` [BAA-049, tert-butyl (3S)-3-[5-[(3-hydroxy-2,6-dimethyl-phenyl)carbamoyl]thiazol-2-ylamino]pyrrolidine-1-carboxylate], the pIC50 under setting [2] is 4.96 to 6.00. For `Cc1ccc(O)c(C)c1NC(=O)c1cnc(Nc2ccn([C@H]3CCOC3)n2)s1` [BAA-041], under setting [2], the pIC50 was 6.00 to 7.30. Compound `Cc1ccc(O)c(C)c1NC(=O)c1cnc(NCCC(C)(C)C)s1` [BAA-074, 2-(3,3-dimethylbutylamino)-N-(3-hydroxy-2,6-dimethyl-phenyl)thiazole-5-carboxamide] gave a pIC50 under setting [2] of 4.96 to 6.00. `Cc1cc(Cl)c(O)c(C)c1NC(=O)c1cnc(Nc2ccn(C)n2)s1` [BAA-547, N-(4-chloro-3-hydroxy-2,6-dimethylphenyl)-2-((1-methyl-1H-pyrazol-3-yl)amino)thiazole-5-carboxamide] gave a pIC50 under setting [1] of 4.96 to 6.00. Compound `Cc1ccc(O)c(C)c1NC(=O)c1cnc(NCCCO)s1` [BAA-069, N-(3-hydroxy-2,6-dimethyl-phenyl)-2-(3-hydroxypropylamino)thiazole-5-carboxamide] gave a pIC50 under setting [2] of 4.96 to 6.00.

For the compound `Cc1ccc(O)c(C)c1NC(=O)c1cnc(NCCc2ccc(C(F)(F)F)cc2)s1` [BAA-075, N-(3-hydroxy-2,6-dimethyl-phenyl)-2-[2-[4-(trifluoromethyl)phenyl]ethylamino]thiazole-5-carboxamide], the pIC50 under setting [2] was 4.96 to 6.00. On to `Cc1ccc(O)c(C)c1NC(=O)c1cnc(Nc2cn[nH]c2)s1` [BAA-026, N-(3-hydroxy-2,6-dimethyl-phenyl)-2-(1H-pyrazol-4-ylamino)thiazole-5-carboxamide], for which the negative-log IC50 (pIC50) under setting [2] is 4.96 to 6.00. With `Cc1ccc(O)c(C)c1NC(=O)c1cnc(Nc2cc(CN3CCN(CCO)CC3)n(C)n2)s1` [BAA-052, N-(3-Hydroxy-2.6-dimethyl-phenyl)-2-[[5-[[4-(2-hydroxyethyl)piperazin-4-ium-1-yl]methyl]-1-methyl-pyrazol-3-yl]amino]thiazole-5-carboxamide], the negative-log IC50 (pIC50) under setting [2] was 4.96 to 6.00.

For `CCN(CC)C(=O)Cn1nc(C(F)(F)F)cc1Nc1ncc(C(=O)Nc2c(C)ccc(O)c2C)s1` [BAA-561, 2-((1-(2-(diethylamino)-2-oxoethyl)-3-(trifluoromethyl)-1H-pyrazol-5-yl)amino)-N-(3-hydroxy-2,6-dimethylphenyl)thiazole-5-carboxamide], the negative-log IC50 (pIC50) under setting [1] is 4.96 to 6.00.
